“And” between values parts separate entries of the source, which are not always exact repeats. Equal entries are not always repeated.
Tests used:
[1] = tested on: hRBCs; experiment: Hemolysis assay
Protocol: (§1) Human blood samples of healthy subjects were obtained from Maharaj Hospital, Chiang Mai, Thailand, which were anonymized by the laboratory and kept in a heparinized tube. […] The remaining RBCs were used in a hemolysis assay. […] Consent to participate was not applicable because of anonymous data collection. All methods were carried out following relevant guidelines and regulations.
Human RBCs were collected after the separation of hPBMCs from whole blood. The 5% RBCs suspension then was mixed with several concentrations of the various forms of selenium and incubated at 37 °C for three hours. […] Hemoglobin released by damaged cells can be used as a marker of red blood cell lysis following test agent exposure and can notice as a red-color solution that can be measured for absorbance using spectrophotometry. Triton X-100 was used as a positive control.

[2] = tested on: HEK-293; experiment: Cytotoxic assay (MTT) in HEK-293; type: cell-based, human; details: HEK-293, MTT
Protocol: (§2) Cell viability (%) = (Absorbance (sample))/(Absorbance (control)) × 100 […]
(§3) Cell proliferation was determined using an MTT assay at indicated time.
(§4) The solution was gently removed, then the crystal was dissolved by dimethyl sulfoxide (DMSO). The cell viability is directly related to the […]
(§5) to a decrease in cell numbers. […]
(§6) the starting point (0 h) (B-E).

[3] = tested on: Caco2; experiment: Cytotoxic assay (MTT) in Caco2; type: cell-based, human
Protocol: as §2, §3, §4, §5, §6

[4] = tested on: MRC-5; experiment: Cytotoxic assay (MTT) in MRC-5; type: cell-based, human; details: MRC-5, MTT
Protocol: as §2, §3, §4, §5, §6

[5] = tested on: LX-2; experiment: Cytotoxic assay (MTT) in LX-2; type: cell-based, human; details: LX-2, MTT
Protocol: as §2, §3, §4, §5, §6

[6] = tested on: hPBMCs; experiment: Cytotoxicity on hPBMCs (SRB assay); details: at up to 16 µM of Se
Protocol: as §1

[7] = tested on: Salmonella typhimurium TA 98; experiment: Ames test, mutagenicity, TA 98
Protocol: (§7) 2-aminoanthracene (2-AA) and 2-(2-furyl)-3-(5-nitro-2-furyl)-acrylamide (AF-2) standard mutagens were used as positive control. 2-AA was used in the presence of S9 mixture, while AF-2 was used without the S9 mixture. Deionized water (DI) and DMSO were used as negative controls for the samples and mutagens, respectively. The mixture solution was poured onto the minimal histidine agar and then incubated at 37 °C for 48 h. The revertant colonies formed on the agar plate were scored.
(§8) Three plates were investigated per dose in two independent experiments for both mutagenicity and antimutagenicity tests.

[8] = tested on: Salmonella typhimurium TA 100; experiment: Ames test, mutagenicity, TA 100
Protocol: as §7, §8

[9] = tested on: Salmonella typhimurium TA 98; experiment: Ames test, anti-mutagenicity, TA 98; type: cell-based; details: TA 98, +S9, PhIP (0.1 µg/Plate)
Protocol: To determine the antimutagenicity of the samples, 6-phenylimidazo [4,5-b]pyridine (PhIP) and 2-Amino-3-methylimidazo [4,5-f]quinoline (IQ) were used as standard mutagens (positive control) in the test of TA98 and TA100, respectively, in the presence of S9 mixture. The antimutagenicity was indicated based on percentage inhibition which was calculated as in the following equation:Antimutagenicity (%) = [1 − (b/a)] × 100
(§9) • a = revertant colony number induced via standard mutagen (positive control) • b = revertant colony number induced by standard mutagen in the presence of each sample treatment

[10] = tested on: Salmonella typhimurium TA 100; experiment: Ames test, anti-mutagenicity, TA 100; type: cell-based
Protocol: The antimutagenicity was indicated based on percentage inhibition which was calculated as in the following equation:Antimutagenicity (%) = [1 − (b/a)] × 100
as §9

[11] = tested on: Salmonella typhimurium TA 98; experiment: Ames test, anti-mutagenicity, TA 98; type: cell-based
[12] = tested on: 3T3-L1; experiment: Cytotoxic assay (MTT) in 3T3-L1; details: at up to 16 µM
[13] = tested on: Drosophila melanogaster; experiment: SMART (wing spot test), mutagenicity; type: in vivo; design: key to Statistical diagnosis: Small Single (m = 2) / Statistical diagnosis: Large Single (m = 5) / Statistical diagnosis: Twin (m = 5) / Statistical diagnosis: Total Spots (m = 2): + = positive; − = negative; i = inconclusive; details: 20 mM
Protocol: Urethane (20 mM) was used as a mutagen (positive control) and DI was used as a negative control. The larvae were fed on each medium until pupation at 25 °C. Later, the wings of surviving flies were removed for mutant spot analysis. Approximately 40 wings in each group were scored for the presence of mutant spots, including small single spots, large single spots, and twin spots. The results were diagnosed using the estimation of spot frequencies and confidence limits for comparison with the control group, and the statistical significance was calculated as previously described by Frei and Würgler.

[14] = tested on: Drosophila melanogaster; experiment: SMART (wing spot test), anti-mutagenicity; details: mutagen alone, 1 mM
Protocol: The wing spots were scored as mentioned above. The percentage of anti-mutagenicity of the nanoparticles (% inhibition) was calculated as in the following equation:Antimutagenicity (%) = [(a − b)/a] × 100
• a = number of total spots per wing of positive mutagen control group • b = number of total spots per wing of each experimental group

[15] = TA 100, +S9, IQ (0.05 µg/Plate), 3.12 µM/plate
[16] = TA 100, +S9, IQ (0.05 µg/Plate), 6.25 µM/plate
[17] = TA 100, +S9, IQ (0.05 µg/Plate), 12.5 µM/plate
[18] = TA 100, −S9, AF-2 (0.01 µg/Plate), 3.12 µM/plate
[19] = TA 100, −S9, AF-2 (0.01 µg/Plate), 6.25 µM/plate
[20] = TA 100, −S9, AF-2 (0.01 µg/Plate), 12.5 µM/plate
[21] = TA 98, −S9, AF-2 (0.1 µg/Plate), 3.12 µM/plate
[22] = TA 98, −S9, AF-2 (0.1 µg/Plate), 6.25 µM/plate
[23] = TA 98, −S9, AF-2 (0.1 µg/Plate), 12.5 µM/plate

Triton X-100
% Hemolysis ([1]; positive control, run beside each Se form): 98 ± 0.052% and 100 ± 0.23%

O=[Se]([O-])[O-].[Na+].[Na+] [Na2SeO3, sodium selenite]
effect on cell number (cell proliferation, Supplementary Figure S5) ([2]; 48 h vs starting point 0 h): killing effect | IC50 ([2]; selenium concentration): 9 µM | effect on cell number (cell proliferation, Supplementary Figure S5) ([3]; 48 h vs starting point 0 h): killing effect | IC50 ([3]; selenium concentration): 4 µM and ~4 µM | effect on cell number (cell proliferation, Supplementary Figure S5) ([4]; 48 h vs starting point 0 h): killing effect | IC50 ([4]; selenium concentration): 10.5 µM | effect on cell number (cell proliferation, Supplementary Figure S5) ([5]; 48 h vs starting point 0 h): killing effect | IC50 ([5]; selenium concentration): 11.2 µM | cell viability of hPBMCs [6]: not harmful | % Hemolysis ([1]; Se concentration 4 µM, 37 °C, three hours): 0.01 ± 0.059% | % Hemolysis ([1]; Se concentration 6.25 µM, 37 °C, three hours): 0.14 ± 0.036% | % Hemolysis ([1]; Se concentration 8 µM, 37 °C, three hours): 0.06 ± 0.024% | % Hemolysis ([1]; Se concentration 50 µM, 37 °C, three hours): 0.08 ± 0.074% | Number of Revertant Colonies ([7]; TA 98, +S9, 3.12 µM/plate): 25 ± 5 | Number of Revertant Colonies ([7]; TA 98, +S9, 6.25 µM/plate): 26 ± 4 | Number of Revertant Colonies ([7]; TA 98, +S9, 12.5 µM/plate): 27 ± 5 | Number of Revertant Colonies ([7]; TA 98, −S9, 3.12 µM/plate): 22 ± 2 | Number of Revertant Colonies ([7]; TA 98, −S9, 6.25 µM/plate): 21 ± 1 | Number of Revertant Colonies ([7]; TA 98, −S9, 12.5 µM/plate): 23 ± 3 | mutagenicity in Ames test ([7]; TA98 and TA 100, presence or absence of S9 homogenate): neither pro-mutagen nor mutagen | Number of Revertant Colonies ([8]; TA 100, +S9, 3.12 µM/plate): 121 ± 8 | Number of Revertant Colonies ([8]; TA 100, +S9, 6.25 µM/plate): 122 ± 11 | Number of Revertant Colonies ([8]; TA 100, +S9, 12.5 µM/plate): 126 ± 7 | Number of Revertant Colonies ([8]; TA 100, −S9, 3.12 µM/plate): 117 ± 7 | Number of Revertant Colonies ([8]; TA 100, −S9, 6.25 µM/plate): 110 ± 4 | Number of Revertant Colonies ([8]; TA 100, −S9, 12.5 µM/plate): 112 ± 7 | % mutagenic inhibition ([9]; 3.12 µM/plate): 7% | Number of Revertant Colonies ([9]; 3.12 µM/plate): 341 ± 14 | % mutagenic inhibition ([9]; 6.25 µM/plate): 6% | Number of Revertant Colonies ([9]; 6.25 µM/plate): 345 ± 9 | % mutagenic inhibition ([9]; 12.5 µM/plate): 10% | Number of Revertant Colonies ([9]; 12.5 µM/plate): 332 ± 23 | % mutagenic inhibition [10, 15]: 11% | Number of Revertant Colonies [10, 15]: 435 ± 24 | % mutagenic inhibition [10, 16]: 18% | Number of Revertant Colonies [10, 16]: 404 ± 20 | % mutagenic inhibition [10, 17]: 21% | Number of Revertant Colonies [10, 17]: 385 ± 28 | inhibition of mutagen-induced revertant colonies ([10]; TA100, +S9, IQ, 6.25–12.5 µM/plate): 18–21% | anti-mutagenic activity in the AF-2-induced mutation model ([10]; TA100, −S9): not observed | % mutagenic inhibition [10, 18]: −17% | Number of Revertant Colonies [10, 18]: 541 ± 82 | % mutagenic inhibition [10, 19]: −24% | Number of Revertant Colonies [10, 19]: 570 ± 40 | % mutagenic inhibition [10, 20]: −30% | Number of Revertant Colonies [10, 20]: 597 ± 58 | anti-mutagenic activity in the AF-2-induced mutation model ([11]; TA98, −S9): not observed | % mutagenic inhibition [11, 21]: 9% | Number of Revertant Colonies [11, 21]: 315 ± 6 | % mutagenic inhibition [11, 22]: 4% | Number of Revertant Colonies [11, 22]: 335 ± 24 | % mutagenic inhibition [11, 23]: 5% | Number of Revertant Colonies [11, 23]: 329 ± 14 | toxicity to pre 3T3-L1 [12]: not toxic

NC(=O)C(=Cc1ccc([N+](=O)[O-])o1)c1ccco1 [AF-2, 2-(2-furyl)-3-(5-nitro-2-furyl)-acrylamide]
Number of Revertant Colonies ([7]; TA 98, −S9, 0.1 µg/plate): 299 ± 20 | Number of Revertant Colonies ([8]; TA 100, −S9, 0.1 µg/plate): 500 ± 73 | Number of Revertant Colonies ([10]; TA 100, −S9, standard mutagen alone, 0.01 µg/Plate): 460 ± 36 (0) | Number of Revertant Colonies ([11]; TA 98, −S9, standard mutagen alone, 0.1 µg/Plate): 347 ± 20 (0)

CCOC(N)=O [Urethane, ethyl carbamate]
Frequency of Mutant Spots Per Individual: Large Single (m = 5) ([13]; 40 wings): 10.50 | Frequency of Mutant Spots Per Individual: Small Single (m = 2) ([13]; 40 wings): 24.75 | Frequency of Mutant Spots Per Individual: Total Spots (m = 2) ([13]; 40 wings): 36.25 | Frequency of Mutant Spots Per Individual: Twin (m = 5) ([13]; 40 wings): 1.0 | Number of Spots: Large Single (m = 5) ([13]; 40 wings): 420 | Number of Spots: Small Single (m = 2) ([13]; 40 wings): 990 | Number of Spots: Total Spots (m = 2) ([13]; 40 wings): 1450 | Number of Spots: Twin (m = 5) ([13]; 40 wings): 40 | Statistical diagnosis: Large Single (m = 5) ([13]; vs DI): + | Statistical diagnosis: Small Single (m = 2) ([13]; vs DI): + | Statistical diagnosis: Total Spots (m = 2) ([13]; vs DI): + | Statistical diagnosis: Twin (m = 5) ([13]; vs DI): +

Cn1c(N)nc2c3cccnc3ccc21 [IQ, 2-Amino-3-methylimidazo [4,5-f]quinoline]
Number of Revertant Colonies ([10]; TA 100, +S9, standard mutagen alone, 0.05 µg/Plate): 490 ± 20 (0)

CCOS(C)(=O)=O [EMS, ethyl methanesulfonate]
Frequency of Mutant Spots Per Individual: Large Single (>2 Cells) [14]: 2.850 | Frequency of Mutant Spots Per Individual: Small Single (1–2 Cells) [14]: 7.400 | Frequency of Mutant Spots Per Individual: Total Spots [14]: 11.300 | Frequency of Mutant Spots Per Individual: Twin Spots [14]: 1.050 | Number of Spots: Large Single (>2 Cells) [14]: 114 | Number of Spots: Small Single (1–2 Cells) [14]: 296 | Number of Spots: Total Spots [14]: 452 | Number of Spots: Twin Spots [14]: 42 | Statistical diagnosis: Large Single (>2 Cells) ([14]; vs deionized water): + | Statistical diagnosis: Small Single (1–2 Cells) ([14]; vs deionized water): + | Statistical diagnosis: Total Spots ([14]; vs deionized water): + | Statistical diagnosis: Twin Spots ([14]; vs deionized water): +

Nc1ccc2cc3ccccc3cc2c1 [2-AA, 2-aminoanthracene]
Number of Revertant Colonies ([7]; TA 98, +S9, 0.5 µg/plate): 318 ± 24 | Number of Revertant Colonies ([8]; TA 100, +S9, 0.5 µg/plate): 590 ± 38

Reference: article PMC10609996, “The Toxicological Assessment of Anoectochilus burmannicus Ethanolic-Extract-Synthesized Selenium Nanoparticles Using Cell Culture, Bacteria, and Drosophila melanogaster as Suitable Models” (Nanomaterials, 2023)
